According to article PMC4912613, “A broad analysis of resistance development in the malaria parasite” (Nature Communications, 2016):
Like-named read-outs stand apart in the source and are kept apart here.

Tests used:
[1] = tested on: DHODH (E182D, parent 3D7); assay: Cross-resistance EC50 assay, DHODH; assay type: cell-based; settings: Plasmodium falciparum; SYBR green 72 hour assay; synchronized parasites; 384-well format; strain DHODH (3D7 parent)
Procedure, shortened: (§1)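 EC50 fold shifts were derived from blood-stage growth assays run in parallel on mutant and parent strains within one laboratory. Growth was measured either by tritiated hypoxanthine uptake (48 h) or SYBR Green I staining (72 h).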

HepG2 = assay: Hepatocyte toxicity; assay type: cell-based, human; settings: for Hepatocyte Toxicity: HepG2; for EC50 fold shift compared to asexual stage: Hepatocyte Toxicity: hepatocyte toxicity / 3D7 EC50; for Liver Stage / Hepatocyte Toxicity: toxicity fold shift for the liver stage (hepatocyte toxicity vs liver stage EC50)
Procedure, shortened: (§2)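 HepG2 cells were pretreated with compound for 2 h, then infected with fresh P. berghei sporozoites. After 48 h, exoerythrocytic-form viability was read by BrightGlo luminescence; hepatocyte toxicity was tested in parallel. EC50s came from 12-point curves run in duplicate, starting at 5 μM or 50 μM.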

[2] = tested on: P. berghei exoerythrocytic forms; assay: Liver-stage P. berghei hepatocyte invasion and development assay (luminescence, HepG2); assay type: cell-based, Plasmodium berghei; settings: for EC50: Plasmodium berghei; for EC50 fold shift compared to asexual stage: Liver Stage EC50: liver stage EC50 / 3D7 EC50
Procedure, shortened: as §2

hsp90 (D88Y, parent Dd2) = assay: Cross-resistance EC50 assay, hsp90; assay type: cell-based; settings: Plasmodium falciparum; SYBR green 72 hour assay; synchronized parasites; 384-well format; strain HSP90 (Dd2 parent)
Procedure, shortened: as §1

[3] = tested on: ATQ-R4 (cytb M133I and L144S, parent 3D7); assay: Cross-resistance EC50 assay, ATQ-R4; assay type: cell-based, Plasmodium falciparum; settings: Plasmodium falciparum, 3D7; SYBR green 72 hour assay; asynchronized parasites; 96-well or 1536-well format; ATQ-R4
Procedure, shortened: as §1

[4] = tested on: GNF449-R2 (PfATP4 I203L and P990R, parent Dd2); assay: Cross-resistance EC50 assay, GNF449-R2; assay type: cell-based; settings: Plasmodium falciparum, SYBR green 72 hour assay, asynchronized parasites, 96-well or 1536-well format
Procedure, shortened: as §1

[5] = tested on: P. falciparum 3D7, Dd2, Dd2Δexo; assay: In vitro evolution of compound-resistant lines (selection); assay type: cell-based, Plasmodium falciparum; settings: for # of Resistant Strains Generated: resistant cultures out of three independent cultures; for EC50 fold shifts observed: selected parasites vs selection parent
Procedure, shortened: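 Resistance was selected in triplicate cultures. High-pressure: ~1–2 × 10^9 parasites at 3–10 × EC50, with intermittent or constant pressure. Step-wise: ~1 × 10^8 parasites, dose raised 5–10% to hold 50% growth reduction, until a reproducible >3× EC50 shift. Lines were cloned by limiting dilution; selection ended at 200 days.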

[6] = HepG2, 48 h, P. berghei sporozoites, HepG2, 48 h, read-out: Liver Stage EC50

Structure (SMILES)	EC50 [1] [nM]	Hepatocyte Toxicity (HepG2) [µM]	EC50 fold shift compared to asexual stage: Hepatocyte Toxicity (HepG2)	Liver Stage / Hepatocyte Toxicity (HepG2)	EC50 [2, 6] [nM]	EC50 fold shift compared to asexual stage: Liver Stage EC50 [2]	EC50 (hsp90 (D88Y, parent Dd2)) [nM]	EC50 [3] [µM]	EC50 [4] [µM]	Time Length to Obtain Mutants ([5]; in vitro selection)	# of Resistant Strains Generated [5]	EC50 fold shifts observed [5]	EC50 ([2]; HepG2, text values, read-out: Liver stage EC50 (PfLuc EC50)) [nM]	acquisition of resistant parasites ([5]; in vitro selection)
CCCCCCCN(Cc1ccc(OC(C)(C)C(=O)OCC)cc1)C(=O)Nc1ccc(Cl)cc1OCC [MMV021735]	460	> 50	> 130	> 18	2690	7.03	275	0.056	1.78	LONG (> 125 days)	0/3	no shift	–	–
CN(C)Cc1ccc(-c2cc3c(-c4ccc(CN(C)C)cc4)ccnc3[nH]2)cc1.O=C(O)C(F)(F)F [MMV022224]	321	2.32	–	2.90	801	–	346	0.372	0.518	LONG (> 125 days)	0/3	no shift	–	–
Nc1ncc(-c2cn[nH]c2)cc1-c1nc2ccc(F)cc2[nH]1 [MMV023367]	414	4.228	14.00	6.92	611	2.02	491	1.67	2.66	LONG (> 125 days)	3/3	3x	–	–
CN(C)S(=O)(=O)c1cc(-c2ccc3nccc(-c4cccc(S(N)(=O)=O)c4)c3c2)cnc1N [MMV024038]	216	0.1461	0.64	13.52	10.8	0.05	128	1.16	1	SHORT (0-50 days)	0/3	no shift	10	–
Cc1ccc(S(=O)(=O)n2cc(-c3ccnc(N)c3)c3cc(Br)cnc32)cc1 [MMV024114]	395	9.39	35.43	1.58	5940	22.40	831	1.99	3.34	LONG (> 125 days)	3/3	2x	–	–
CNCc1ccc2nc(-c3coc(Cc4cc(Cl)ccc4OCC(C)C)n3)[nH]c2c1.Cl.Cl [MMV026596]	392	13.42	38.79	2.07	6470	18.71	373	0.303	0.307	LONG (> 125 days)	0/3	no shift	–	not obtained
COc1cc(-c2nc(-c3ccccc3)c(-c3ccccc3)[nH]2)ccc1OCCN(C)C [MMV027496]	128	13.49	121.53	4.25	3170	28.59	312	0.305	2.33	LONG (> 125 days)	0/3	no shift	–	–
Cc1nc2ccc3ccc(CNc4ccc(C(=O)CC(CCC(=O)O)C(=O)O)cc4)cc3c2c(=O)[nH]1.Cl (stereo not shown) [MMV027634]	33	11.61	504.78	–	> 50000	> 2170	39	0.194	0.204	SHORT (0-50 days)	3/3	>15x	–	–
CC(C)c1cccc(C(NC(=O)C2Cc3ccccc3CN2C(=O)c2cccc(N3CCOCC3)c2)C2CCCC2)c1 (stereo not shown) [MMV028038]	1270	19.24	35.63	3.59	5360	9.92	432	1.01	0.555	MODERATE (50-125 days)	3/3	5-30x	–	–
O=C(NCC(CCCN1CCC(c2c[nH]c3ccccc23)CC1)c1ccccc1)Nc1ccc(Cl)c(Cl)c1 (stereo not shown) [MMV029272]	148	5.366	39.46	2.98	1800	13.22	710	9.56	0.373	LONG (> 125 days)	3/3	6-9x	–	–
CC(C)(C)OC(=O)N1CCN(c2ccccc2NC(=O)c2cccc(C(F)(F)F)c2Oc2ccc(F)cc2)CC1 [MMV030666]	392	10.17	20.93	16.60	613	1.26	321	0.448	0.248	LONG (> 125 days)	0/3	no shift	–	–
CC(NCc1ccccc1)c1cc(Cl)ccc1O (stereo not shown) [MMV665789]	728	> 5	> 4	–	> 5000	> 4	557	0.41	0.201	MODERATE (50-125 days)	2/3	3-7x	–	–
